The values below come from US20080175974A1, “Isomaltulose as an Aftertaste-Shortening Agent” (Suedzucker Aktiengesellschaft Mannheim/Ochsenfurt, priority 2005, published 2008).

For data set [1], the system named is test subjects. The experiment in a line: Sensory evaluation of milk chocolate containing sucralose (aftertaste). It counts as in vivo, humans. The settings on record: milk chocolate with 42.41 g/100 g isomaltulose and 0.02 g/100 g sucralose; 12 to 17 test subjects; assessed after chocolate completely dissolved in the mouth; compared with trehalose, lactite, maltite, erythrite chocolates; FIG. 1. On the procedure:
Milk chocolates containing sucralose were produced, which contained either a sugar substitute or isomaltulose (Palatinose™) as the sweetener that is absorbed by the body. These milk chocolates were evaluated sensorially with respect to their aftertaste that is typical of sucralose.
“You have before you samples of chocolate containing sucralose. Sucralose has a pronounced, lingering aftertaste. The following samples are to be evaluated with regard to whether, and if so to what extent, this aftertaste is perceptible.
Please take a serving of chocolate (1 “square”) and suck on it. […] Then please assess the aftertaste of the sample.
To neutralize the taste, please have some of the prepared tea and the white bread.”
Samples: • Milk chocolate containing sucralose with isomaltulose • Milk chocolate containing sucralose with trehalose • Milk chocolate containing sucralose with lactite • Milk chocolate containing sucralose with maltite • Milk chocolate containing sucralose with erythrite
The sensory evaluation of the chocolates containing sucralose was performed by 12 to 17 test subjects.
The aftertaste of the sucralose was assessed after the chocolate had been completely dissolved in the mouth.

In data set [2] the test system is test subjects. Nature of the data set: Sensory evaluation of aqueous solutions containing sucralose (aftertaste). Conditions: aqueous solution 7.916% isomaltulose, 0.004% sucralose; 5 test subjects; assessed immediately following consumption; compared with maltodextrin or saccharose solutions; scale 0=no perceptible aftertaste, 2=clearly perceptible. The data set is classed as in vivo, humans.
Method: Aqueous solutions containing sucralose were prepared, which contained isomaltulose, maltodextrin or saccharose as a sweetener. All the solutions also contained sucralose. […] Samples: • Maltodextrin solution: 7.916% maltodextrin; 0.004% sucralose; 92.080% water • Palatinose™ solution: 7.916% isomaltulose; 0.004% sucralose; 92.080% water • Saccharose solution: 5.603% saccharose; 0.004% sucralose; 94.393% water The sensory evaluation of the solutions containing sucralose was performed by 5 test subjects. The aftertaste of the sucralose was assessed immediately following consumption of the solution containing sucralose.

The conditions of data set [3]: water; cited from earlier work.
For data set [4] the following is noted: cited from earlier work.

Regarding `O=C(CO)[C@@H](O)[C@H](O)[C@H](O)CO[C@H]1O[C@H](CO)[C@@H](O)[C@H](O)[C@H]1O` [isomaltulose, 6-O-α-D-glucopyranosyl-fructose], the “lingering aftertaste of sucralose” value with test subjects [1] and in the data set with test subjects [2] was “decreases the lingering aftertaste” each time. Besides, the aqueous solubility in data set [3] is 0.49 g anhydrous isomaltulose per gram of water. The sweetening power result in data set [4] (10% aqueous isomaltulose solutions) is on record as “approximately 0.4 of the sweetening power of sugar”.
As to `OC[C@H]1O[C@H](O[C@]2(CCl)O[C@H](CCl)[C@@H](O)[C@@H]2O)[C@H](O)[C@@H](O)[C@H]1Cl` [sucralose, 1,6-dichloro-1,6-didesoxy-β-D-fructofuranosyl-4-chloro-4-desoxy-α-D-galactopyranoside], in data set [4] (sucralose in aqueous solution), the “sweetness relative to sugar” value is reported as “approximately 600 times sweeter than sugar”.
